Values quoted from earlier work as cited in patent publication US20120115745A1, “METHODS FOR PREDICTING SENSITIVITY TO TREATMENT WITH A TARGETED TYROSINE KINASE INHIBITOR” (priority 2010, published 2012).

Assays:
[1] = molecular target: unrelated receptor tyrosine kinases, soluble tyrosine kinases and serine/threonine kinases; details: less activity than against VEGF and PDGF receptor families
[2] = test system: tumor cells that are dependent on mutant, constitutively active, FLT3 and KIT kinases

Cc1ccc(F)c(NC(=O)Nc2ccc(-c3cccc4[nH]nc(N)c34)cc2)c1 [ABT-869, N-(4-(3-amino-1H-indazol-4-yl)phenyl)-N′-(2-fluoro-5-methylphenyl)urea]
IC50 [1]: > 1 µM
anti-proliferative and apoptotic effects on tumor cells [2]: potent anti-proliferative and apoptotic effects
